The source of these data is publication PMC12376128, “In vitro and In Vivo Drug Metabolism Analysis of BPI-460372 - A Covalent TEAD1/3/4 Inhibitor” (Current Drug Metabolism, 2025).

Series [1] is described as follows: Stability in plasma. In kind it is in vitro ADME. Particulars: mouse plasma, 37°C, 4 h.
The test system of series [2] is monkey hepatocytes. The series is described as follows: Metabolism and metabolite formation in hepatocytes. Format: in vitro ADME, cynomolgus monkey. Particulars: cynomolgus monkey hepatocytes, 10 µM BPI-460372, 4 h incubation. From the text: (§1) All the samples were duplicates.
A short description of series [3]: 4-week toxicity study. In kind it is in vivo. Particulars: rats.
The test system of series [4] is CYP2C8. The series is described as follows: Metabolic stability in HLMs with or without specific CYP inhibitor (quercetin). The following applies: HLMs 1 mg protein/mL, substrate 1 μM, quercetin 20 µM. Format: in vitro ADME, human. The protocol:
(§2) Before starting the experiments, the HLMs were thawed gently on ice. Metabolic stability incubations were performed at 37 °C. The incubations contained 100 mM phosphate buffer saline (PBS, pH 7.4), HLMs (1 mg protein·mL^-1), dimethyl sulfoxide (DMSO, blank control) or a selective CYP inhibitor, and BPI-460372 or positive control substrates (final incubation concentration, 1 μM). The incubation process started with the addition of NADPH (1 mM final concentration) after a 5-minute preincubation period. The chemical inhibitors were as follows: a-naphthoflavone (2 µM) for CYP1A2, ticlopidine (20 µM) for 2B6, quercetin (20 µM) for CYP2C8, sulfaphenazole (20 µM) for CYP2C9, ticlopidine (200 µM) for CYP2C19, quinidine (20 µM) for CYP2D6, and ketoconazole (20 µM) for CYP3A [9]. Aliquots were maintained in acetonitrile containing internal standard (IS) at various time points, such as 0 min, 5 min, 10 min, 20 min, 30 min, and 60 min. All incubations were performed in triplicate, and the concentration in the supernatant was determined by liquid chromatography-tandem mass spectrometry (LC-MS/MS).
(§3) The elimination rate constant k (min^-1) was obtained by linear regression from the natural logarithm of the […] of the parent drug and the incubation time. The inhibition rate was calculated using equation 1 [10]: […]

The target in series [5] is T1, CYP2B6 (Homo sapiens, UniProt P20813).
T1 construct: HLMs (1 mg protein·mL^-1); tissue BioIVT; host or cells: pooled human liver microsomes
T1 sequence (P20813 1-491): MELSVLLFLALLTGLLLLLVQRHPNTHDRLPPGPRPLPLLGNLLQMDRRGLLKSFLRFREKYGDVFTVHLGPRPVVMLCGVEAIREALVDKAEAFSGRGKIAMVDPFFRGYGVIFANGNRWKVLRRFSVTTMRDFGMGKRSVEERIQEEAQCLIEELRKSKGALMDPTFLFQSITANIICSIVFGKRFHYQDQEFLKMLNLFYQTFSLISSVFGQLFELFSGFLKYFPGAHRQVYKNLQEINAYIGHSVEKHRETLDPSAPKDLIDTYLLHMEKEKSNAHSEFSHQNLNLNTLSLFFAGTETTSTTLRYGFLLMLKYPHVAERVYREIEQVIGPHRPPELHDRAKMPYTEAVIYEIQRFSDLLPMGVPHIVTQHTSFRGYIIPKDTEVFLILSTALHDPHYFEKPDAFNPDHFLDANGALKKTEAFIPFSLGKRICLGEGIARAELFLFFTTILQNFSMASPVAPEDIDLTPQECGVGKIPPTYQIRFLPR
The series is described as follows: Metabolic stability in HLMs with or without specific CYP inhibitor (ticlopidine 20 µM). In kind it is in vitro ADME. The following applies: HLMs 1 mg protein/mL, substrate 1 μM. The protocol:
as §2, with “The incubations contained 100 mM phosphate buffer saline (PBS, pH 7.4), HLMs (1 mg protein·mL^-1), dimethyl sulfoxide (DMSO, blank control) or a selective CYP inhibitor, and BPI-460372 or positive control substrates (final incubation concentration, 1 μM).” left out
as §3

Series [6] in a line: Metabolite identification in rat plasma, urine, feces and bile. In kind it is in vivo, SD rats. The gist of the method:
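Pooled sex-specific samples from SD rats: plasma after 12 mg/kg, urine, feces and bile (collected over 0-48 h) after 6 mg/kg; beagle dog plasma after 8 mg/kg. Acetonitrile extraction (urine centrifuged only), dried, redissolved in acetonitrile/water 20:80, analysed by UHPLC-Orbitrap-HRMS.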

The subject of series [7] is mouse hepatocytes. The series is described as follows: Metabolism and metabolite formation in hepatocytes. In kind it is in vitro ADME, ICR mouse. The following applies: ICR mouse hepatocytes, 10 µM BPI-460372, 4 h incubation.
Text: as §1

The nature of series [8]: Stability in plasma. Format: in vitro ADME. Particulars: monkey plasma, 37°C, 4 h.
Where [9] appears, read: oral 6 mg/kg BPI-460372, average of male and female pooled samples.

Take `C=C(F)C(=O)N1CC(n2c(=O)n(-c3ccc(C(F)(F)F)cc3)c3nccnc32)C1` [BPI-460372]: the Stability in plasma entry in series [1] and in series [8] was “stable” throughout. Besides, the figures for the “UV (314 nm) Peak Areas Relative Abundance” value in series [2] and in series [7] were 63.98% and 32.74%, respectively. In addition, the Main target organs entry in series [3] is “kidney”. Further, the “Inhibition Rate” value in series [4] is listed as 53.9%; in series [5] it was -11.5%. In series [6] (setting [9]), the “Relative abundance of MS peak areas, Rat Bile 0-48 h” value amounted to 0.67%. In addition, the “Relative abundance of MS peak areas, Rat Feces 0-48 h” value in series [6] (setting [9]) turned out to be 16.95%. The “Relative abundance of MS peak areas, Rat Urine 0-48 h” value in series [6] (setting [9]) worked out at 0.12%. Further, the “Relative abundance of MS peak areas, Rat Plasma 0-24 h” value in series [6] (oral 12 mg/kg BPI-460372, average of male and female pooled samples) is on record as 75.36%.
